Data: US20260176289A1, “SMALL MOLECULE INHIBITORS OF KRAS PROTEINS” (Merck Sharp & Dohme LLC, priority 2022, published 2026)
Like-named read-outs stand apart in the source and are kept apart here.

Key:
[1] = target: KRAS-G12D (Homo sapiens, UniProt P01116, G12D); assay: SOS-catalyzed nucleotide exchange assay (Procedure A, TR-FRET), KRAS-G12D; type: biochemical; conditions: nucleotide exchange, read-out: KRAS G12D GNE IC50
Excerpt: (§1) Procedure for SOS-Catalyzed Nucleotide Exchange Assay for KRAS-WT, G12C/D/V, G13D, HRAS, and NRAS (Procedure A)
(§2) Recombinant KRAS-G12C protein used in this assay has an additional triple mutation (C51S/C80L/C118S). Whereas KRAS-WT, G12D/V, G13D, HRAS and NRAS are in context of their WT protein sequence background. Specifically, the SOS-catalyzed nucleotide exchange assay utilizes a preformed TR-FRET complex containing a specific biotinylated RAS protein (KRAS-WT, G12C/V/D, G13D, HRAS, NRAS; described above) with Bodipy-GDP, and Terbium-streptavidin. Compounds are preincubated with this complex for 60 minutes. Subsequently, recombinant human SOS protein and unlabeled GTP are added to initiate the exchange reaction. Small molecule inhibitors stabilize the Bodipy-GDP complex whereas the untreated protein rapidly exchanges Bodipy-GDP for unlabeled GTP resulting in reduced TR-FRET signal.
(§3) To assemble the preformed TR-FRET complexes, each biotinylated RAS protein is diluted to 2 μM in an EDTA Buffer (20 mM HEPES pH 7.5, 50 mM sodium chloride, 10 mM EDTA, and 0.01% Tween) and incubated at room temperature for one hour. This mixture is then further diluted to 90 nM in an Assay Buffer (20 mM HEPES pH 7.5, 150 mM sodium chloride, 10 mM magnesium chloride, and 0.005% Tween) containing 15 nM of Terbium-Streptavidin (Invitrogen, catalog #PV3577) and 900 nM of Bodipy-GDP (Invitrogen, catalog #G22360) and incubated at room temperature for six hours. It should be noted that this preformed TR-FRET complex for each of the RAS protein were made ahead of time, aliquoted and stored at −80° C. until the day of the experiment.
(§4) Each test compound (10 mM stock in DMSO) is diluted in DMSO to make a final-10-point, 3-fold dilution and is acoustically dispensed into a 384-well assay plate (Corning, catalog #3820) using an Echo 550 (Labcyte). Each well of the assay plate receives 3 μL of a specific 3×RAS preformed TR-FRET complex and 3 μL of Assay Buffer and is incubated at room temperature for 60 minutes (preincubation time). Each well then receives 3 μL of 3×recombinant human SOS protein and GTP (Sigma, G8877) in Assay Buffer and is incubated at room temperature for 30 minutes (G13D), 60 minutes (KRAS WT/G12C/D, H/NRAS) or 90 minutes for G12V. The final reaction in each well of 9 μL consists of 3 mM GTP, specific Ras and SOS proteins in the following concentrations: KRAS-G12C/SOS=3 nM/40 nM, KRAS-WT and G12D/SOS=1 nM/40 nM, KRAS-G12V/SOS=1.25 nM/160 nM. KRAS-G13D/SOS=1.25 nM/0 nM, HRAS and NRAS=1.25 nM/40 nM.
(§5) The time-resolved fluorescence resonance energy transfer (TR-FRET) signal is measured on an Envision (PerkinElmer) plate reader: Excitation filter=340 nm; emission 1=495 nm; emission2=520 nm; dichroic mirror=D400/D505; delay time=[…]. The signal of each well is determined as the ratio of the emission at 520 nm to that at 495 nm. Percent effect of each well is determined after normalization to control wells containing DMSO (no effect) or a saturating concentration of inhibitor (max effect). The apparent effect as a function of compound concentration is fit to a four-parameter logistic equation.

[2] = target: KRAS-WT (Homo sapiens, UniProt P01116); assay: SOS-catalyzed nucleotide exchange assay (Procedure A, TR-FRET), KRAS-WT; type: biochemical; conditions: nucleotide exchange, read-out: KRAS WT GNE IC50
Excerpt: as §1, §2, §3, §4, §5

[3] = target: KRAS-G12V (Homo sapiens, UniProt P01116, G12V); assay: SOS-catalyzed nucleotide exchange assay (Procedure A, TR-FRET), KRAS-G12V; type: biochemical; conditions: nucleotide exchange, read-out: KRAS G12V GNE IC50
Excerpt: as §1, §2, §3, §4, §5

[4] = tested on: AsPC-1 cells; assay: Cellular phospho-ERK assay, AsPC-1 cells (homozygous KRAS-G12D); type: cell-based; conditions: Homo sapiens, ASPC1, 2 h, read-out: AsPC1 pERK IC50
Procedure: Procedure for Cellular Phospho-ERK Assay in KRAS Wild Type and Mutant (G12D, G12V) Cell Lines
MKN-1 cells (JCRB JCRB0252) containing amplified wild-type KRAS, were cultured in growth medium that contains RPMI 1640-GlutaMAX™-I (ThermoFisher Scientific 61870) containing 10% heat inactivated fetal bovine serum (ThermoFisher Scientific 10091148), 1 mM sodium pyruvate and 10 mM HEPES. PANC08.13 cells (ATCC® CRL-2551™), containing homozygous KRAS-G12D activating mutation, were cultured in growth medium made of RPMI1640-GlutaMAX™-I (ThermoFisher Scientific 61870) containing 15% heat inactivated fetal bovine serum (ThermoFisher Scientific 10091148)). AsPC-1 cells (ATCC® CRL-1682™), containing homozygous KRAS-G12D activating mutation, were cultured in T150 flask in growth medium (RPMI medium 1640-GlutaMAX™-I (ThermoFisher Scientific 61870) containing 10% fetal bovine serum (ThermoFisher Scientific 10091148)). SW620 cells (ATCC® […]), containing homozygous KRAS-G12V activating mutation, were cultured in growth medium that contains RPMI 1640-GlutaMAX™-I (ThermoFisher Scientific 61870) containing 10% heat inactivated fetal bovine serum (ThermoFisher Scientific 10091148).
Cells for the assay were harvested in growth medium after TrypLE (ThermoFisher scientific 12604021) digestion and were seeded in a 384-well collagen coated cell culture plate (Corning 356702) at a density of 10,000-15,000 cells/20 μL/well, and incubated at 37° C., 5% CO2 overnight. The compound (with 10 mM stock concentration) dose-response titrations were prepared [30 μM final ERK detection assay concentration and 1:3 dilutions, 10-point dose response] and appropriate amounts (270 nL) of test compounds were dispensed in a 384-well intermediate plate using an Echo 550 liquid handler. 30 μL/well of RPMI medium 1640-GlutaMAX™—I was added to the intermediate plate and the contents of the intermediate plate (10 μL/well) were then transferred to the 384-well collagen coated cell culture plate, which was incubated at 37° C., 5% CO2 for 2 hours. After removal of medium from the collagen coated cell culture plate, cells were lysed in lysis buffer from Alpha SureFire® Ultra™ Multiplex p-ERK and total ERK assay kit (PerkinElmer MPSU-PTERK) containing Halt™ Protease and Phosphatase inhibitor cocktail (ThermoFisher Scientific 78446) at room temperature with constant shaking at 300 rpm for 30 minutes. The cell lysates were then transferred to an OptiPlate-384 plate (PerkinElmer 6005620), and the phosphorylation of ERK (p-ERK) and total ERK levels were detected by Alpha SureFire® Ultra™ Multiplex p-EEK kit and total ERK assay kit (PerkinElmer MPSU-PTERK) following the manufacturer's protocol. Assay plates were read on a En Vision Multimode Plate Reader (PerkinElmer), and the ratio of p-ERK vs. total ERK in each well was used as the final readout. Dose response curves were analyzed using a 4-parameter logistic model to calculate IC50 values using Spotfire software.

KRAS-WT, sequence (P01116 with tags, fused parts or gaps isoform P01116-2): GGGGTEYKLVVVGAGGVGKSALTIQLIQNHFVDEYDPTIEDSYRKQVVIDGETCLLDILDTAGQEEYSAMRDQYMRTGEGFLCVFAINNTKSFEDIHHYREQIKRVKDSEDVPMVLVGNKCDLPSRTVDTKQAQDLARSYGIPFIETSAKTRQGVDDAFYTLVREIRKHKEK
KRAS-G12V, sequence (P01116 with tags, fused parts or gaps isoform P01116-2 G12V): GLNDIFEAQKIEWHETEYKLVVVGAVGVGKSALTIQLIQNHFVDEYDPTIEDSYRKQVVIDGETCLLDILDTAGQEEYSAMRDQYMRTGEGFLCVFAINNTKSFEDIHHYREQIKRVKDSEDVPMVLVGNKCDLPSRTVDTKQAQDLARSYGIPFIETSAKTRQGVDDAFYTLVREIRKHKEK
KRAS-G12D, sequence (P01116 with tags, fused parts or gaps isoform P01116-2 G12D): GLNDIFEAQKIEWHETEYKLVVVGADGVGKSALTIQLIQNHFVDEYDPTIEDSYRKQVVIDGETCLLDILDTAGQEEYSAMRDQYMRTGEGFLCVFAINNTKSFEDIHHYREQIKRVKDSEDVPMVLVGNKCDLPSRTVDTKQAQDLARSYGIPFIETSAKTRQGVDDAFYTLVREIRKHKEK

Row | SMILES | IC50 [1] [nM] | IC50 [2] [nM] | IC50 [3] [nM] | IC50 ([4]; KRAS-G12D, 2 hours) [nM] | IC50 ([4]; 2 hours compound incubation) [nM]
1 | C[C@@]1(O)COCCN(c2nc(OC[C@@]34CCCN3C[C@H](F)C4)nc3sc4c(-c5c(C6(F)CC6)c(F)cc6[nH]ncc56)nccc4c23)C1 [Ex-53, (6S)-4-(8-(6-fluoro-5-(1-fluorocyclopropyl)-1H-indazol-4-yl)-2-(((2R,7aS)-2-fluorotetrahydro-1H-pyrrolizin-7a(5H)-yl)methoxy)pyrido[4′,3′:4,5]thi-eno[2,3-d]pyrimidin-4-yl)-6-methyl-1,4-oxazepan-6-ol] | 26.4 | 91.2 | 46.7 | 465 | –
2 | C[C@@]1(O)COCCN(c2nc(OC[C@@]34CCCN3C[C@H](F)C4)nc3sc4c(-c5c(C6CC6)c(C#N)cc6[nH]ncc56)nccc4c23)C1 [Ex-51, 5-cyclopropy1-4-(2-(((2R,7aS)-2-fluorotetrahydro-1H-pyrrolizin-7a(5H)-yl)methoxy)-4-((S)-6-hydroxy-6-methyl-1,4-oxazepan-4-yl)pyrido[4′,3′:4,5]thieno [2,3-d]pyrimidin-8-yl)-1H-indazole-6-carbonitrile] | 115 | 234 | 140 | 1410 | –
3 | C[C@@]1(O)COCCN(c2nc(OC[C@@]34CCCN3C[C@H](F)C4)nc3sc4c(-c5c(-c6cc[nH]c6)c(Cl)cc6[nH]ncc56)nccc4c23)C1 [Ex-73, (6S)-4-(8-(6-chloro-5-(1H-pyrrol-3-yl)-1H-indazol-4-yl)-2-(((2R,7aS)-2-fluorotetrahydro-1H-pyrrolizin-7a(5H)-yl)methoxy)pyrido[4′,3′:4,5]thi-eno[2,3-d]pyrimidin-4-yl)-6-methyl-1,4-oxazepan-6-ol] | 9.67 | 60.4 | 52.2 | 1060 | –
4 | C=CC(F)(F)c1c(C)cc2[nH]ncc2c1-c1nccc2c1sc1nc(OC[C@@]34CCCN3C[C@H](F)C4)nc(N3CCOC[C@@](C)(O)C3)c12 [Ex-152, (6S)-4-(8-(5-(1,1-difluoroallyl)-6-methyl-1H-indazol-4-yl)-2-(((2R,7aS)-2-fluorotetrahydro-1H-pyrrolizin-7a(5H)-yl)methoxy)pyrido[4′,3′:4,5]thieno[2,3-d]pyrimidin-4-yl)-6-methyl-1,4-oxazepan-6-ol] | 76.9 | 195 | 106 | – | 636
5 | CO[C@H]1C[C@@H](COc2nc(N3CCOC[C@@](C)(O)C3)c3c(n2)sc2c(-c4c(C5CC5)c(C(F)(F)F)cc5[nH]ncc45)nccc23)N(C)C1 [Ex-84, (6S)-4-(8-(5-cyclopropyl-6-(trifluoromethyl)-1H-indazol-4-yl)-2-(((2S,4S)-4-methoxy-1-methylpyrrolidin-2-yl)methoxy)pyrido[4′,3′:4,5]thi-eno[2,3-d]pyrimidin-4-yl)-6-methyl-1,4-oxazepan-6-ol] | 670 | 1380 | 847 | 2890 | –
6 | CN1CCc2cc3[nH]ncc3c(-c3nccc4c3sc3nc(OC[C@@]56CCCN5C[C@H](F)C6)nc(N5CCOC[C@@](C)(O)C5)c34)c21 [Ex-125, (6S)-4-(2-(((2R,7aS)-2-fluorotetrahydro-1H-pyrrolizin-7a(5H)-yl)methoxy)-8-(5-methyl-1,5,6,7-tetrahydropyrrolo[2,3-f]indazol-4-yl)pyrido[4′,3′:4,5]thieno[2,3-d]pyrimidin-4-yl)-6-methyl-1,4-oxazepan-6-ol] | 66 | 161 | 94 | 1030 | –
7 | C[C@@]1(O)COCCN(c2nc(OC[C@]3(CN4CCOC5(CC5)C4)CC3(F)F)nc3sc4c(-c5c(C6(F)CC6)c(Cl)cc6[nH]ncc56)nccc4c23)C1 [Ex-264, (6S)-4-(2-(((R)-1-((4-oxa-7-azaspiro[2.5]octan-7-yl)methyl)-2,2-difluorocyclopropyl)methoxy)-8-(6-chloro-5-(1-fluorocyclopropyl)-1H-indazol-4-yl)pyrido[4′,3′:4,5]thieno[2,3-d]pyrimidin-4-yl)-6-methyl-1,4-oxazepan-6-ol] | 63.9 | 351 | 215 | – | 618
8 | Cc1cc2[nH]ncc2c(-c2nc(C#N)cc3c2sc2nc(OC[C@@]45CCCN4C[C@H](F)C5)nc(N4CCOC[C@@](C)(O)C4)c23)c1C(F)(F)F [Ex-31, 2-(((2R,7aS)-2-fluorotetrahydro-1H-pyrrolizin-7a(5H)-yl)methoxy)-4-((S)-6-hydroxy-6-methyl-1,4-oxazepan-4-yl)-8-(6-methyl-5-(trifluoromethyl)-1H-indazol-4-yl)pyrido[4′,3′:4,5]thieno[2,3-d]pyrimidine-6-carbonitrile] | 305 | 571 | 219 | 1310 | –
9 | C[C@@]1(O)COCCN(c2nc(OC[C@@]34CCCN3C[C@H](F)C4)nc3sc4c(-c5c6c(cc7[nH]ncc57)CCC6C(F)(F)F)nccc4c23)C1 (stereo partly shown) [Ex-92] | 226 | 482 | 340 | 1860 | –
10 | CC1CCc2ccc(F)c(-c3nccc4c3sc3nc(OC[C@@]56CCCN5C[C@H](F)C6)nc(N5CCOC[C@@](C)(O)C5)c34)c21 (single isomer, unassigned) [Ex-118] | 150 | 432 | 123 | 1060 | –
